In patent US9828375B2, “4-position substituted pyrazolopyrimidine derivative, and use thereof in drug preparation” (Guangxi Wuzhou Pharmaceuticals (Group) Co., Ltd., priority 2012, dated 2017):
pIC50: −log10 of the molar value.

Assays:
Type in all cases: biochemical
PDGFRβ = PDGFRβ (Homo sapiens, UniProt P09619); assay: Kinase inhibition activity test, isotope labeling: PDGFRβ; settings: ATP 200 μM; read-out: PDGFRβ IC50 value (inhibitory activity value)
Protocol: (§1) The purpose of this experiment was to test the inhibitory activity of the compound of the invention for in vitro kinase with the isotope labeling method (the γ phosphate group on ATP was labeled). In this experiment, the in vitro activity inhibition of such kinases as FLT3, VEGFR2, FLT1, FLT4, RET, c-RAF, B-RAF, c-KIT, PDGFα, PDGFβ, FGFR2, FGFR1, EphA2, EphB2, SRC, ABL, ALK and Met was tested respectively. Staurosporine was reference molecule (or referred to as positive control). The kinase inhibition activity of the test compound was expressed by half-inhibitory concentration (IC50) or the kinase activity inhibition rate of the test compound at a concentration of 10 μM. The IC50 value could be obtained by calculating the kinase activity inhibition rate of the test compound at different concentrations.
(§2) 20 mM 3-(N-morpholinyl)propanesulfonic acid (MOPS); 1 mM ethylenediaminetetraacetic acid (EDTA), 0.01% Brij 35 (Brij-35), 5% glycerol, 0.1% mercaptoethanol, 1 mg/mL bovine serum albumin (BSA), 10 mM manganous dichloride solution (MnCl2), 0.1 mg/mL glutamic acid/tyrosine (4:1) polypeptide (poly(Glu, Tyr)4:1), 50 μM EAIYAAPFAKKK (substrate of FLT3), 0.33 mg/mL myelin basic protein (substrate of VEGFR2), 250 μM KKKSPGEYVNIEFG (substrate of FLT1(h)), 500 μM GGEEEEYFELVKKKK (substrate of FLT4(h)), 250 μM KKKSPGEYVNIEFG (substrate of RET), 0.66 mg/mL myelin basic protein (substrate of C-RAF), 250 μM GGMEDIYFEFMGGKKK (substrate of c-Kit), 250 μM GGMEDIYFEFMGGKKK (substrate of PDGFα), 250 μM KKKSPGEYVNIEFG (substrate of FGFR1), […] GGEEEEYFELVKKKK (substrate of SRC), 50 μM EAIYAAPFAKKK (substrate of ABL), 250 μM KKKSPGEYVNIEFG (substrate of ALK), 250 μM KKKSPGEYVNIEFG (substrate of Met(h)), 10 mM magnesium acetate and γ-^33 P-ATP solution, stop buffer (3% phosphate buffer), washing buffer (75 mM phosphate solution), methanol, Filtermat A membrane, FLT3, VEGFR2, FLT3, VEGFR2, FLT1, FLT4, RET, c-RAF, B-RAF, c-KIT, PDGFRα, PDGFRβ, FGFR2, FGFR1, EphA2, EphB2, SRC, ABL, ALK, Met and other kinases, and the test compounds.
(§3) Buffers (8 mM MOPS with pH value of 7.0, 0.2 mM EDTA and 10 mM MnCl2), (5-10 mU) kinases to be tested (FLT3, VEGFR2, FLT1, FLT4, RET, c-RAF, B-RAF, c-KIT, PDGFRα, PDGFRβ, FGFR2, FGFR1, EphA2, EphB2, SRC, ABL, ALK and Met), substrates of kinases to be tested (refer to experimental materials), 10 mM magnesium acetate and γ-^33 P-ATP solution, and test compounds at different concentrations were added to a reaction tube orderly. […] Reaction was terminated with 5 μL 3% phosphate buffer finally, and 10 μL reaction solution was titrated to the Filtermat A membrane; solution was washed for 3 times with 75 mM phosphate solution with each time lasting 5 minutes, and then washed once with methanol. […]

FLT1 = FLT1 (Homo sapiens, UniProt P17948); assay: Kinase inhibition activity test, isotope labeling: FLT1; settings: ATP 200 μM; read-out: FLT1 IC50 value (inhibitory activity value)
FLT1, sequence (P17948 27-1338): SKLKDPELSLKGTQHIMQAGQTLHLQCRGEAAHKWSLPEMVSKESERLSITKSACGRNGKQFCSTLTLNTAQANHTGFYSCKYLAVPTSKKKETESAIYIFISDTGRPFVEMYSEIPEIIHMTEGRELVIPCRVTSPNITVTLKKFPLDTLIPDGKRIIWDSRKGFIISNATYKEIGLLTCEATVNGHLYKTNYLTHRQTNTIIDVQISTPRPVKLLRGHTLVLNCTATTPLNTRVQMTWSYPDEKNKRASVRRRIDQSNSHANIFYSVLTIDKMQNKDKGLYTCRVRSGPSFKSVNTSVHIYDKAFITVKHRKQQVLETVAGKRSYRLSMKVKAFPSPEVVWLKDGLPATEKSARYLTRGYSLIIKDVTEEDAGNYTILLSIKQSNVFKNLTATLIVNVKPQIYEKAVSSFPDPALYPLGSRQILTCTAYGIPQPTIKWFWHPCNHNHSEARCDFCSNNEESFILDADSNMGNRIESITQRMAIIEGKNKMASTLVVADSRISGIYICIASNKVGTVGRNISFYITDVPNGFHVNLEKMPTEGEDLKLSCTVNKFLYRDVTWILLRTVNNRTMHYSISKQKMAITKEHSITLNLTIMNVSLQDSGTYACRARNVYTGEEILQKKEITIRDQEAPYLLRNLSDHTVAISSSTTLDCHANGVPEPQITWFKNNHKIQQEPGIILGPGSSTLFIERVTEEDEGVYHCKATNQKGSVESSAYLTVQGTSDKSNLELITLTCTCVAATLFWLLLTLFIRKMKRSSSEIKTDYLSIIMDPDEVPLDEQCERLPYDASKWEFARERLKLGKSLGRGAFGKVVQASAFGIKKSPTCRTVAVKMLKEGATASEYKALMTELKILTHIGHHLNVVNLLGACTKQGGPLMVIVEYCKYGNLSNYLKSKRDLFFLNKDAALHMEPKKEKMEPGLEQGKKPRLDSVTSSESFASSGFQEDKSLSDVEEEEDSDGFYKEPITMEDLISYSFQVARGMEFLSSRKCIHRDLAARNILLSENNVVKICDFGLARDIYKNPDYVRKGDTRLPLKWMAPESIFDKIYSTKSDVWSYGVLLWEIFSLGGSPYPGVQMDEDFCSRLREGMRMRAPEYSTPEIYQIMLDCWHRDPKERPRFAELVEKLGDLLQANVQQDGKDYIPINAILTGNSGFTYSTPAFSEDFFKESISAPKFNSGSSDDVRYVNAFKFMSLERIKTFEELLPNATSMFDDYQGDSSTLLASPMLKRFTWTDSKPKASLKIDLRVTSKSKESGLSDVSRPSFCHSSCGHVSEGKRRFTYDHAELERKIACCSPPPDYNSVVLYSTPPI
Protocol: as §1, §2, §3

FLT4 = FLT4 (Homo sapiens, UniProt P35916); assay: Kinase inhibition activity test, isotope labeling: FLT4; settings: ATP 200 μM; read-out: FLT4 IC50 value (inhibitory activity value)
FLT4, sequence (P35916 25-1363): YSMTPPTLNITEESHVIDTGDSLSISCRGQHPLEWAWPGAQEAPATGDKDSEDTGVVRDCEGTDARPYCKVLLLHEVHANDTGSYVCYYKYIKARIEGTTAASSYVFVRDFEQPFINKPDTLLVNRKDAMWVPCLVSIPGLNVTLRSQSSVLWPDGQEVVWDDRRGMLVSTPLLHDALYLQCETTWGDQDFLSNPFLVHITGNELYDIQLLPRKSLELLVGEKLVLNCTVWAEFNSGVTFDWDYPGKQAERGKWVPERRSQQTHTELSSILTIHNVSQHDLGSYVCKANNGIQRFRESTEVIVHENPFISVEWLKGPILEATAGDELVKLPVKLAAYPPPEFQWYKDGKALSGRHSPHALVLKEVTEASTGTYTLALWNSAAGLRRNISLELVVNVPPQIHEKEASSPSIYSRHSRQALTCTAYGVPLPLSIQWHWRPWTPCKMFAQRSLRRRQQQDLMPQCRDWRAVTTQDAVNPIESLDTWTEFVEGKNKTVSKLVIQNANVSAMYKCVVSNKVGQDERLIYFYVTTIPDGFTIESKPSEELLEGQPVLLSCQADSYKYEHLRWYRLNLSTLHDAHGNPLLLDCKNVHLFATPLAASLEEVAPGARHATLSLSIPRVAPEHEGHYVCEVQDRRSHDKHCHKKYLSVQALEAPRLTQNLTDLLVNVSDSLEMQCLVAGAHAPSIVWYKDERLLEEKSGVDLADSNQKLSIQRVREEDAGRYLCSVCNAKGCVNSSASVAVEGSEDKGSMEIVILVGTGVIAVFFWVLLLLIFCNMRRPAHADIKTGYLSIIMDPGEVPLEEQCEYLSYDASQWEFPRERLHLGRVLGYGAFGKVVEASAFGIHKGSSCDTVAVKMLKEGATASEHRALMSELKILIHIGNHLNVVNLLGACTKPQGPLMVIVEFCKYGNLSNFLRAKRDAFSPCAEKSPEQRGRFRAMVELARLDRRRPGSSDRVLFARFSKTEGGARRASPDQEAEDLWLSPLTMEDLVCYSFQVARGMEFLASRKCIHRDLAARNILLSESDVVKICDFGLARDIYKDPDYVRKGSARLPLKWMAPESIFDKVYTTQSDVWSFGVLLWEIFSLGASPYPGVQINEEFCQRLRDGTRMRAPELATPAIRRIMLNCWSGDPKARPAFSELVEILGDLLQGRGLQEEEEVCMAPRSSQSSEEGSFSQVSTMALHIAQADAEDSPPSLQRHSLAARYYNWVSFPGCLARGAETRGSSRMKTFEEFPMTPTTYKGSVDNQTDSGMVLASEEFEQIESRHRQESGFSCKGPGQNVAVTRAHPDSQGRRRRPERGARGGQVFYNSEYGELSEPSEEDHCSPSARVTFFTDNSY
Protocol: as §1, §2, §3

RET = RET (Homo sapiens, UniProt P07949); assay: Kinase inhibition activity test, isotope labeling: RET; settings: ATP 70 μM; read-out: RET IC50 value (inhibitory activity value)
Protocol: as §1, §2, §3

EphB2 = target: T1, EphB2 (Homo sapiens, UniProt P29323); assay: Kinase inhibition activity test, isotope labeling: EphB2; settings: ATP 10 μM; read-out: EphB2 IC50 value (inhibitory activity value)
T1 sequence (P29323 19-1055): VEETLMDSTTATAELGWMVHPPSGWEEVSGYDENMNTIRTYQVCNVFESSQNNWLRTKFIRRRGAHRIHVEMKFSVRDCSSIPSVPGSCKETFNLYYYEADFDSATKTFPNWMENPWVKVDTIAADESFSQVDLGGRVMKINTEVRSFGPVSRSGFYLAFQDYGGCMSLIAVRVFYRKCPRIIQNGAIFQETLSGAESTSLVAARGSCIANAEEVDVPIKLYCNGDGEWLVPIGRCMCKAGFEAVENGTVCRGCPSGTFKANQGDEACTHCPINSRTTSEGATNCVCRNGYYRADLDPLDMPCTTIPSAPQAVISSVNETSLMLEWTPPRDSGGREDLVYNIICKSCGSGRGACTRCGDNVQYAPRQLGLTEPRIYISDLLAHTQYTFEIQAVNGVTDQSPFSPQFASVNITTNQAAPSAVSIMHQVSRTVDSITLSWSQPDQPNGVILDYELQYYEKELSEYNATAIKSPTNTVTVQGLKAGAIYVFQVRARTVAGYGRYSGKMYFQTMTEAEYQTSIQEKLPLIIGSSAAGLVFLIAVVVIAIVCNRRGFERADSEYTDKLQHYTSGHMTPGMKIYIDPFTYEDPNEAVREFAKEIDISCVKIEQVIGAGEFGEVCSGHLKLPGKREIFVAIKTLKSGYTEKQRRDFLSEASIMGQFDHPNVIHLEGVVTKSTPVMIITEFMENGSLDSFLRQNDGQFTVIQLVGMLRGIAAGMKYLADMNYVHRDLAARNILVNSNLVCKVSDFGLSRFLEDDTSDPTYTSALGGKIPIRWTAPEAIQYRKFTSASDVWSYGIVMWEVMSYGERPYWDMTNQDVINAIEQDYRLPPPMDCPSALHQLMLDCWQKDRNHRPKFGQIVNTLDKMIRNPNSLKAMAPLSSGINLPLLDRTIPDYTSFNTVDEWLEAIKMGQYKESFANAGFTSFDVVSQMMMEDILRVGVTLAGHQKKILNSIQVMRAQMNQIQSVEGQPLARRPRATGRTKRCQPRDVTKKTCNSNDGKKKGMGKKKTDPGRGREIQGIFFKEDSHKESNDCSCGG
Protocol: as §1, §2, §3

SRC = SRC (Homo sapiens, UniProt P12931); assay: Kinase inhibition activity test, isotope labeling: SRC; settings: ATP 45 μM; read-out: SRC IC50 value (inhibitory activity value)
SRC, sequence (P12931 whole entry): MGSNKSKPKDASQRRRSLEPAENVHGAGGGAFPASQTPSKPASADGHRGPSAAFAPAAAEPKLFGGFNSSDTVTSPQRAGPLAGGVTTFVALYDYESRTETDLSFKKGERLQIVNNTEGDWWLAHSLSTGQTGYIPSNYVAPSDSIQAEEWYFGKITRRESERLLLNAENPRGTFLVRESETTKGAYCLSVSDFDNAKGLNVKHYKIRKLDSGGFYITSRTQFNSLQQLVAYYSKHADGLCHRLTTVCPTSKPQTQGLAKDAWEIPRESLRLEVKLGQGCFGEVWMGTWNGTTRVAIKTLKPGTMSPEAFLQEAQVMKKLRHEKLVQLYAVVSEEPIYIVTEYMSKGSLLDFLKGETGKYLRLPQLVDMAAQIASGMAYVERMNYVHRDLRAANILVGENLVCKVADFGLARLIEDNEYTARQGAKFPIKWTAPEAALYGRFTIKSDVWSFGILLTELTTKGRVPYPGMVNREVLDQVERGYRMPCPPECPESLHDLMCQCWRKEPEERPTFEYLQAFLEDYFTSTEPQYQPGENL
Protocol: as §1, §2, §3

PDGFRβ, sequence (P09619 33-1106): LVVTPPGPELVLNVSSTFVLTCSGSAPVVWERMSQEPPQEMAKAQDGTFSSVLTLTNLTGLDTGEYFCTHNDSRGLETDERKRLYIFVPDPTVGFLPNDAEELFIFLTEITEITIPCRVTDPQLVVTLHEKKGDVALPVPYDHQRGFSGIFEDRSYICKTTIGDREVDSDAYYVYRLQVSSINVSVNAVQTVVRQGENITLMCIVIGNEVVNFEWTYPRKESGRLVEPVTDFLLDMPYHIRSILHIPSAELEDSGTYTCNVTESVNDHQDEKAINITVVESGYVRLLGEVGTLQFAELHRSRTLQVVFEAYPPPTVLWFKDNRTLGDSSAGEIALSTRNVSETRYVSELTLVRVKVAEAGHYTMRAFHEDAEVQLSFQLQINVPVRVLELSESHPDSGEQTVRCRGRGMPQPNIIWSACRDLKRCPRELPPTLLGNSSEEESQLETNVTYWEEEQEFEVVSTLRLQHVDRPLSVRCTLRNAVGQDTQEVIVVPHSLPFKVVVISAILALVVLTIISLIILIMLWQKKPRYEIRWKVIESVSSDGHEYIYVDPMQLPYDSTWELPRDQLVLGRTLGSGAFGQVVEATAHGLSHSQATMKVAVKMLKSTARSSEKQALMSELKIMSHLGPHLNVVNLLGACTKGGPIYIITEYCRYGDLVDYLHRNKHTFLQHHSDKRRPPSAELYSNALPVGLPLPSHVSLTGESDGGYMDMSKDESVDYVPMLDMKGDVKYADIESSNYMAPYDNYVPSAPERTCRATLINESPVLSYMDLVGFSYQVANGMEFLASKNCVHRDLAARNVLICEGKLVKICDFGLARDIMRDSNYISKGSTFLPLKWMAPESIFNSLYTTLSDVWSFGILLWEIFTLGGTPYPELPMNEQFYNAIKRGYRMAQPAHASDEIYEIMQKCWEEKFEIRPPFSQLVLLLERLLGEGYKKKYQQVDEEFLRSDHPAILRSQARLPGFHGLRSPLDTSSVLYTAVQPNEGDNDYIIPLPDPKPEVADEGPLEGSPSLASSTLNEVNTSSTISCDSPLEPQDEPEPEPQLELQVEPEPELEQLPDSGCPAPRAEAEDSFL

Structure (SMILES)	pIC50 (PDGFRβ)	pIC50 (FLT1)	pIC50 (FLT4)	pIC50 (RET)	pIC50 (EphB2)	pIC50 (SRC)
CC(C)(C)c1cc(NC(=O)Nc2ccc(Oc3ncnc4[nH]ncc34)cc2)on1 [4a-25]	> 5.00	> 5.00	> 5.00	> 5.00	> 5.00	> 5.00
O=C(Nc1ccc(Oc2ncnc3[nH]ncc23)cc1)Nc1cccc(C(F)(F)F)c1 [4a-6]	6.74	8.30	8.30	8.40	6.86	5.52
CC(C)(C)c1cc(NC(=O)Nc2ccc(Oc3ncnc4[nH]ncc34)c(F)c2)no1 [4a-31]	> 5.00	> 5.00	> 5.00	> 5.00	> 5.00	> 5.00
O=C(Nc1ccc(Oc2ncnc3[nH]ncc23)cc1)Nc1ccc(Cl)c(C(F)(F)F)c1 [4a-2]	6.39	> 5.00	> 5.00	> 5.00	> 5.00	> 5.00
